Measured values taken from ChEMBL document CHEMBL3272248, “beta-Adrenergic blocking agents. 18. 1-(Aryloxy)-3-(arylthioalkylamino)propan-2-ols and 1-substituted alkylthioamino-3-(aryloxy)propan-2-ols” (1978).
Activity calls are given as the source filed them. The rule behind the calls is not given here.

Tests used:
Felis catus [1] = assay: In vivo inhibition of beta-1 adrenergic receptor in iv dosed cat assessed as inhibition of isoproterenol-induced trachycardia after 30 mins; type: functional; settings: 0.5 h
Felis catus [2] = assay: In vivo inhibition of beta-2 adrenergic receptor in iv dosed cat assessed as inhibition of isoproterenol-induced vasodepressor response after 30 mins; type: functional
Felis catus [3] = assay: In vivo inhibition of beta-1 adrenergic receptor in cat assessed as inhibition of isoproterenol-induced trachycardia at 200 ug/kg/min, iv after 30 mins; type: functional, organism-based

Structure (SMILES)	ED50 (Felis catus [1])	inhibition (INH) (Felis catus [2])	inhibition (Felis catus [3])
CC(CNCC(O)COc1ccccc1)Sc1ccccc1.O=C(O)C(=O)O (stereo unspecified)	0.559 mg/kg	18%	–
Cc1ccc(SCCNCC(O)COc2ccccc2)cc1 (stereo unspecified)	0.289 mg/kg	43%	–
COc1ccccc1OCC(O)CNCCSc1ccccc1 (stereo unspecified)	–	–	inactive
Cc1ccc(SCCCNCC(O)COc2ccccc2)cc1.Cl (stereo unspecified)	1.26 mg/kg	11%	–
Cl.OC(CNCCCSc1ccccc1)COc1ccccc1 (stereo unspecified)	0.415 mg/kg	–	–
Cc1ccc(SCCCNCC(O)COc2ccccc2[N+](=O)[O-])cc1 (stereo unspecified)	–	–	inactive
CCSCCCNCC(O)COc1ccccc1Br.O=C(O)C(=O)O (stereo unspecified)	0.212 mg/kg	0%	–
Cc1ccccc1OCC(O)CNCCSc1ccccc1 (stereo unspecified)	1.55 mg/kg	53%	–
CC(CSc1ccccc1)NCC(O)COc1ccccc1.O=C(O)C(=O)O (stereo unspecified)	0.016 mg/kg	0%	–
O=C(O)C(=O)O.OC(CNCCCSC1CCCCC1)COc1ccccc1 (stereo unspecified)	0.781 mg/kg	37%	–
Cc1ccccc1OCC(O)CNCC[S+]([O-])c1ccccc1.O=C(O)C(=O)O (stereo unspecified)	0.799 mg/kg	54%	–
Cc1ccccc1OCC(O)CNCCOc1ccc(C(N)=O)cc1 (stereo unspecified) [TOLAMOLOL]	–	81%	–
Cc1cccc(OCC(O)CNCCSc2ccccc2)c1 (stereo unspecified)	–	–	inactive
CCSCCCNCC(O)COc1ccccc1.O=C(O)C(=O)O (stereo unspecified)	0.838 mg/kg	14%	–
CC(CSc1ccccc1)NCC(O)COc1ccccc1Cl.O=C(O)C(=O)O (stereo unspecified)	0.058 mg/kg	60%	–
C=CCc1ccccc1OCC(O)CNCCCSCC.O=C(O)C(=O)O (stereo unspecified)	0.72 mg/kg	65%	–
CCSCCCNCC(O)COc1ccccc1OC.O=C(O)C(=O)O (stereo unspecified)	0.285 mg/kg	70%	–
O=C(O)C(=O)O.O=[N+]([O-])c1ccccc1OCC(O)CNCCSC1CCCCC1 (stereo unspecified)	0.427 mg/kg	37%	–
COc1ccc(OCC(O)CNCCSc2ccccc2)cc1 (stereo unspecified)	–	–	inactive

Structure (SMILES)	ED50 (Felis catus [1])	inhibition (INH) (Felis catus [2])	inhibition (Felis catus [3])
CCSCCCNCC(O)COc1ccc(NC(C)=O)cc1 (stereo unspecified)	–	–	inactive
O=C(O)C(=O)O.[O-][S+](CCCNCC(O)COc1ccccc1)C1CCCCC1 (stereo unspecified)	0.162 mg/kg	68%	–
CCSCCCNCC(O)COc1ccccc1[N+](=O)[O-].O=C(O)C(=O)O (stereo unspecified)	0.13 mg/kg	12%	–
OC(CNCCSc1ccc(Cl)cc1)COc1ccccc1 (stereo unspecified)	–	–	inactive
CC(C)(C[S+]([O-])c1ccccc1)NCC(O)COc1ccccc1.O=C(O)C(=O)O (stereo unspecified)	0.185 mg/kg	84%	–
CCSCCNCC(O)COc1ccccc1[N+](=O)[O-] (stereo unspecified)	–	–	inactive
CCSCCCNCC(O)COc1ccccc1Cl (stereo unspecified)	0.269 mg/kg	52%	–
O=C(O)C(=O)O.OC(CNCCSc1ccccc1)COc1ccccc1Cl (stereo unspecified)	1.46 mg/kg	0%	–
[O-][S+](CCNCC(O)COc1ccccc1)c1ccc(Cl)cc1 (stereo unspecified)	0.08 mg/kg	0%	–
CCSCCCNCC(O)COc1ccccc1C#N.O=C(O)C(=O)O (stereo unspecified)	0.135 mg/kg	0%	–
CC(NCC(O)COc1ccccc1)C(C)Sc1ccccc1.O=C(O)C(=O)O (stereo unspecified)	0.195 mg/kg	32%	–
Cc1ccccc1OCC(O)CNCCSCc1ccccc1 (stereo unspecified)	–	–	inactive
O=[N+]([O-])c1ccccc1OCC(O)CNCCCSC1CCCCC1 (stereo unspecified)	–	–	inactive
CCC(C)(C)CSCCCNCC(O)COc1ccccc1.O=C(O)C(=O)O (stereo unspecified)	0.083 mg/kg	0%	–
CCSCCNCC(O)COc1ccccc1C#N.O=C(O)C(=O)O (stereo unspecified)	0.2 mg/kg	–	–
CCSCCNCC(O)COc1ccccc1.Cl (stereo unspecified)	0.332 mg/kg	0%	–
CC[S+]([O-])CCNCC(O)COc1ccccc1.O=C(O)C(=O)O (stereo unspecified)	0.195 mg/kg	10%	–
CCSCCCNCC(O)COc1ccc(CC(N)=O)cc1 (stereo unspecified)	–	–	inactive
CCCc1ccccc1OCC(O)CNCCCSCC (stereo unspecified)	–	–	inactive

Structure (SMILES)	ED50 (Felis catus [1])	inhibition (INH) (Felis catus [2])	inhibition (Felis catus [3])
[O-][S+](CCNCC(O)COc1ccccc1)c1ccccc1 (stereo unspecified)	0.044 mg/kg	0%	–
O=C(O)C(=O)O.[O-][S+](CCNCC(O)COc1ccccc1)Cc1ccccc1 (stereo unspecified)	0.156 mg/kg	20%	–
CCSCCCNCC(O)COc1ccc(OC)cc1 (stereo unspecified)	–	–	inactive
O=C(O)C(=O)O.O=[N+]([O-])c1ccccc1OCC(O)CNCCCS(=O)(=O)C1CCCCC1 (stereo unspecified)	1.46 mg/kg	75%	–
OC(CNCCSc1ccccc1)COc1ccccc1 (stereo unspecified)	0.138 mg/kg	13%	–
Cc1ccc([S+]([O-])CCNCC(O)COc2ccccc2)cc1 (stereo unspecified)	0.121 mg/kg	13%	–
CC(C)(CSc1ccccc1)NCC(O)COc1ccccc1.O=C(O)C(=O)O (stereo unspecified)	0.065 mg/kg	40%	–
O=S(=O)(CCNCC(O)COc1ccccc1)c1ccccc1 (stereo unspecified)	1.33 mg/kg	53%	–
Cl.OC(CNCCSC1CCCCC1)COc1ccccc1 (stereo unspecified)	0.162 mg/kg	0%	–
O=[N+]([O-])c1ccccc1OCC(O)CNCCC[S+]([O-])C1CCCCC1 (stereo unspecified)	–	–	inactive
O=C(O)C(=O)O.OC(CNCCSCc1ccccc1)COc1ccccc1 (stereo unspecified)	0.207 mg/kg	–	–
CC(C)SCCCNCC(O)COc1ccccc1.O=C(O)C(=O)O (stereo unspecified)	0.333 mg/kg	0%	–
COc1ccccc1SCCNCC(O)COc1ccccc1.O=C(O)C(=O)O (stereo unspecified)	0.482 mg/kg	24%	–
N#Cc1ccccc1OCC(O)CNCCSc1ccccc1 (stereo unspecified)	–	–	inactive
Cc1ccccc1OCC(O)CNCCCSc1ccccc1 (stereo unspecified)	–	–	inactive
CCSCCCNCC(O)COc1ccc([N+](=O)[O-])cc1 (stereo unspecified)	–	–	inactive
O=[N+]([O-])c1ccccc1OCC(O)CNCCSCc1ccccc1 (stereo unspecified)	0.946 mg/kg	0%	–
OC(CNCCSCc1ccccc1)COc1ccccc1Cl (stereo unspecified)	–	–	inactive
